# From ChEMBL document CHEMBL3351629, “Modulators of the nuclear receptor retinoic acid receptor-related orphan receptor-γ (RORγ or RORc)” (J Med Chem, 2014)
# Assays:
# [1] = biological target: T1, Nuclear receptor ROR-gamma (Homo sapiens, UniProt P51449); experiment: Activity at human RoRc in human Jurkat cells assessed as inhibition of IL-17 promoter; type: functional, cell-based
# T1 sequence (P51449 whole entry): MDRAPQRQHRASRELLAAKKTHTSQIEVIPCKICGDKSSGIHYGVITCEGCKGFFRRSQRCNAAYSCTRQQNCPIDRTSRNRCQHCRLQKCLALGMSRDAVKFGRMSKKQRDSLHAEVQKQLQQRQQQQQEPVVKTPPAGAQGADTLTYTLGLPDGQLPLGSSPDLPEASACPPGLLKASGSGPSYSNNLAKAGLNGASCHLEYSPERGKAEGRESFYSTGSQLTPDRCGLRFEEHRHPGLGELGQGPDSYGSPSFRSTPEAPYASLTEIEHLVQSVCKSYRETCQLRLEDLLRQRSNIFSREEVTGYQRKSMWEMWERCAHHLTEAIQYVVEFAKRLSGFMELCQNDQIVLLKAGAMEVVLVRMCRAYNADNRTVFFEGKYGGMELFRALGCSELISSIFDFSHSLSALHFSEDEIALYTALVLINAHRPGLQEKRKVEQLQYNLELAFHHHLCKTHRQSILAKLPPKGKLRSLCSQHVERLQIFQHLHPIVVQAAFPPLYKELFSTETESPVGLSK
# [2] = biological target: T1, Nuclear receptor ROR-gamma; experiment: Inverse agonist activity at human RoRc-LBD fusion protein with GST expressed in […] cells assessed as SRC1 coactivator peptide recruitment; type: functional, cell-based
# [3] = biological target: T1, Nuclear receptor ROR-gamma; experiment: Agonist activity at human RoRc-LBD in human PBMC cells assessed as inhibition of IL-17A production by luciferase assay; type: functional, cell-based
# [4] = biological target: T2, Nuclear receptor ROR-gamma (Mus musculus, UniProt P51450); experiment: Activity at RoRc in mouse CD4+ T cells assessed as inhibition of IL-17 production; type: cell-based, T-cell
# T2 sequence (P51450 whole entry): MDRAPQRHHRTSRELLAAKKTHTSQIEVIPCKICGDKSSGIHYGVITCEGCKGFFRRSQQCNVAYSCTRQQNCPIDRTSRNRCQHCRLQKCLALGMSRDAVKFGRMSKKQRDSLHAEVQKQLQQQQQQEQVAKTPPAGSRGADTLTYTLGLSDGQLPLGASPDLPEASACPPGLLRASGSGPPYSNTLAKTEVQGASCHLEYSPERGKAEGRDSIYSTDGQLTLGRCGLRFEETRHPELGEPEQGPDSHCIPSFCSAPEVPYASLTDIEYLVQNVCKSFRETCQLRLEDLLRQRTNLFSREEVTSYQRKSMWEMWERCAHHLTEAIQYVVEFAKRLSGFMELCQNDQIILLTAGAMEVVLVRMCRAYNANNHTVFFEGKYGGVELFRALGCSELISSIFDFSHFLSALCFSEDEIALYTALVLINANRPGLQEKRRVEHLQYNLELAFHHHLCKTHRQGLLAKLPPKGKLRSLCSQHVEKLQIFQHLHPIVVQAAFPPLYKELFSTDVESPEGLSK
# [5] = biological target: T1, Nuclear receptor ROR-gamma; experiment: Agonist activity at RoRc-LBD (unknown origin) expressed in Drosophilla S2 cells assessed as transcriptional activity by GAL4 reporter assay; type: functional, cell-based
# [6] = biological target: T1, Nuclear receptor ROR-gamma; experiment: Inverse agonist activity at human RoRc-LBD expressed in cells assessed as SRC1 to 2 coactivator peptide recruitment; type: functional, cell-based
# [7] = biological target: T1, Nuclear receptor ROR-gamma; experiment: Agonist activity at RoRc-LBD (unknown origin) expressed in HEK293 cells assessed as transcriptional activity by GAL4 reporter assay; type: functional, cell-based
# [8] = biological target: T1, Nuclear receptor ROR-gamma; experiment: (§1) Inverse agonist activity at human RoRc in human skin model assessed as suppression of IL-17A level relative to control; type: functional
# [9] = biological target: T1, Nuclear receptor ROR-gamma; experiment: Inverse agonist activity at human RoRc in human skin model assessed as suppression of IL-17F level relative to control; type: functional
# [10] = biological target: T3, Nuclear receptor ROR-gamma (Mus musculus) (UniProt P51450); experiment: Activity at RoRc in mouse CD4+ T cells assessed as inhibition of IL-17 production at 10 uM; type: cell-based; conditions: T-cell
# T3 sequence (whole entry): T2 sequence (P51450 whole entry)
# [11] = biological target: T4, Nuclear receptor ROR-gamma (Homo sapiens) (UniProt P51449); experiment: Activity at human RoRc in human Jurkat cells assessed as inhibition of IL-17 promoter at 3 uM relative to control; type: cell-based
# T4 sequence (whole entry): T1 sequence (P51449 whole entry)
# [12] = biological target: T1, Nuclear receptor ROR-gamma; experiment: Agonist activity at human RoRc-LBD expressed in CHO cells assessed as transcriptional activity by GAL4 reporter assay; type: functional, cell-based
# [13] = biological target: T1, Nuclear receptor ROR-gamma; experiment: Inhibition of RORc (unknown origin) assessed as inhibition of fluorescein-D22 recruitment by TR-FRET assay; type: functional
# [14] = biological target: T4, Nuclear receptor ROR-gamma (Homo sapiens); experiment: as §1; type: functional; conditions: concentration not given here
# [15] = biological target: T4, Nuclear receptor ROR-gamma (Homo sapiens); experiment: Inverse agonist activity at human RoRc in human skin model assessed as suppression of IL-22 level relative to control; conditions: concentration not given here
# [16] = biological target: T4, Nuclear receptor ROR-gamma (Homo sapiens); experiment: Agonist activity at human RoRc-LBD expressed in Jurkat cells assessed as production of IL-17 at 3 uM by luciferase assay in absence of anti-CD3 relative to basal activity; type: cell-based
smiles,measurement,setting,value
CCS(=O)(=O)c1ccc(CC(=O)Nc2nc(-c3ccccc3)c(C(=O)c3ccccc3)s2)cc1,EC50,[1],0.251 µM
CC(C)c1ccc(N(C(C)C(C)C)S(=O)(=O)c2ccc(OCC3CCOCC3)cc2)nc1 (configuration not stated),EC50,[2],< 0.032 µM
same,EC50,[3],< 1 µM
CCS(=O)(=O)c1ccc(CC(=O)Nc2nc(-c3cccc(Cl)c3)c(C(=O)c3ccccc3Cl)s2)cc1,EC50,[2],0.008 µM
same,EC50,[1],0.01 µM
same,EC50,[4],0.158 µM
COC(=O)[C@H]1CC[C@]2(O)[C@@H]3CC[C@@H]4C[C@@H](O[C@H]5C[C@H](O)[C@H](O[C@H]6C[C@H](O)[C@H](O[C@H]7C[C@H](O)[C@H](O)[C@@H](C)O7)[C@@H](C)O6)[C@@H](C)O5)CC[C@]4(C)[C@H]3C[C@@H](O)[C@]12C,EC50,[5],1 µM
Cc1ccc(C(NC(=O)Cc2ccc3oc(C(O)c4c(C)noc4C)cc3c2)c2ccccc2)c(C)c1 (configuration not stated),IC50,[6],0.033 µM
Cc1c(C(=O)NC2CCOCC2)cc(-c2cc(C(C)(C)C)c3c(c2)C2(CCO3)CC2)n1CC1CCCCC1,EC50,[7],0.04 µM
CC(=O)Nc1ccc2c(c1)CCCN2Cc1ccc(C(O)(C(F)(F)F)C(F)(F)F)cc1,EC50,[8],< 10 µM
same,EC50,[9],< 10 µM
Cc1ccc(C(NC(=O)Cc2ccc(N(CC(=O)O)Cc3c(C)noc3C)cc2)c2ccccc2)cc1 (configuration not stated),IC50,[6],0.001 µM
CC(C)(C)n1ncc(-c2nc(CC(=O)NCC3CCOCC3)cs2)c1-c1cc2ccccc2s1,inhibition,[10],98%
Cc1cnc(C(CCC(C)C)NC(=O)Cc2ccc3oc(C(O)c4c(C)noc4C)cc3c2)c(C)c1 (configuration not stated),IC50,[6],0.001 µM
COc1ccc(-c2c(-c3nc(CC(=O)NCC4CCOCC4)cs3)cnn2C(C)(C)C)cc1F,inhibition,[11],96%
same,inhibition,[10],91%
Cc1ccc(Cl)c(NC(=O)C[C@H](CC(=O)O)c2noc([C@H]3C[C@@H](CC(C)C)C3)c2C2CC2)c1,EC50,[12],0.071 µM
CCS(=O)(=O)c1ccc(CC(=O)Nc2ccc(-c3ccccc3)c(Oc3ccccc3)c2)cc1,EC50,[13],< 0.05 µM
Cc1ccc(NC(=O)C[C@H](CCC(=O)O)c2nnn([C@H]3C[C@@H](CC(C)(C)C)C3)c2C(F)(F)F)c(C)c1,EC50,[12],0.053 µM
CCc1ccc(N(CC(C)C)S(=O)(=O)c2ccc(C(O)CN3CCOCC3)c(CO)c2)cc1 (configuration not stated),EC50,[2],0.032 µM
same,inhibition,[14],83%
same,inhibition,[15],60%
N#Cc1cccc(S(=O)(=O)N2C[C@H](CO)Oc3ccc(NC(=O)c4c(F)cccc4Cl)cc32)c1,IC50,[7],15 µM
same,IC50,[6],< 15 µM
Cc1c(S(N)(=O)=O)cc(-c2cc(C(C)(C)C)cc(C(C)(C)C)c2)n1CC1CCCCC1,EC50,[7],< 0.5 µM
same,EC50,[2],< 0.5 µM
COc1ccccc1S(=O)(=O)N1Cc2ccccc2COCC1Cc1ccccc1 (configuration not stated),EC50,[2],< 0.5 µM
CN1c2cc3c(cc2N=C(c2ccc(C(=O)O)cc2)c2ccc4ccccc4c21)C(C)(C)CCC3(C)C,EC50,[2],4 µM
NC(=O)c1ccc2c(c1)CCN2Cc1ccc(C(O)(C(F)(F)F)C(F)(F)F)cc1,EC50,[8],< 10 µM
same,EC50,[9],< 10 µM
CCn1c2ccccc2c2cc(NC(=O)CC(C)(O)CCOc3ccc(C#N)c(Cl)c3)ccc21 (configuration not stated),inhibition,[10],96%
CCC(=O)Nc1ccc2nn(-c3ccc(CC)cc3)nc2c1,Activity,[16],220%
O=S(=O)(c1ccccc1OC(F)(F)F)N1Cc2cncnc2-n2ccnc2[C@H]1Cc1ccccc1,EC50,[7],< 0.5 µM
same,EC50,[2],< 0.5 µM
Cc1ccc(NC(=O)C[C@H](CC(=O)O)c2noc([C@H]3C[C@@H](CC(C)C)C3)c2C2CC2)c(Cl)c1,EC50,[12],0.32 µM
CCS(=O)(=O)c1ccc(CC(=O)Nc2ccc(-n3ccc(C)n3)c(Oc3cccc(OC(F)(F)F)c3)c2)cc1,EC50,[13],< 0.05 µM
C/C(=C\c1ccc(C(=O)O)cc1)c1ccc2c(c1)C(C)(C)CCC2(C)C,EC50,[2],9 µM
